# From paper PMC9884426, “A phase 1 clinical trial of the repurposable acetyllysine mimetic, n-methyl-2-pyrrolidone (NMP), in relapsed or refractory multiple myeloma” (Clinical Epigenetics, 2023)
# Tested on: patients with relapsed/refractory multiple myeloma (RR–MM)
# Assay: Phase 1 dose-escalation trial of oral NMP: safety, adverse events (CTCAE 4.03), DLT, MTD
# Assay type: in vivo
# Experimental: This was a phase 1, open-label dose-escalation trial of orally administered NMP in patients with relapsed/refractory multiple myeloma (RR–MM). Eligible patients were ≥ 18 years old with Eastern Cooperative Oncology Group (ECOG) < 2 and histologically confirmed plasma cell myeloma defined by WHO 2008 criteria with measurable disease (defined by serum M-protein > 5 g/L, urine M-protein > 200 mg/24 h, involved serum free light chain > 100 mg/L or measurable soft tissue plasmacytoma). Patients were required to have relapsed following prior treatment and/or be refractory to or intolerant of both bortezomib and lenalidomide and must have undergone autologous stem cell transplant (unless deemed ineligible at investigator discretion). Exclusion criteria included: central nervous system involvement, active second malignancy within two years, uncontrolled medical conditions contraindicating an investigational agent due to inadequate organ function and concomitant exposure to anti-myeloma therapies.
# The primary study endpoint was to determine the MTD of orally administered NMP in patients with RR–MM. Secondary endpoints included safety, PK analyses, IMWG defined response rate and exploratory immunological biomarkers. Adverse events were defined according to Common Terminology Criteria for Adverse Events (CTCAE version 4.03). Haematological DLTs were defined as grade 4 neutropenia unresponsive to G-CSF, grade 4 thrombocytopenia and febrile neutropenia. Non-haematological DLTs were grade 3 or higher and considered probably related to study drug and not attributable to disease progression and those resulting treatment delays greater than two weeks due to drug-related toxicity. Self-limited (< 24 h) gastrointestinal side effects (e.g. nausea, diarrhoea) responding to supportive measures were not classified as DLTs.
# Pharmaceutical grade NMP stock solution (Ashland, Columbus, OH, USA) was diluted in ORA SWEET® SF (Medical Flavouring Systems, Vic, Australia) oral syrup vehicle and sterile water to a final concentration of 50 mg/mL and dispensed weekly in amber glass bottles for storage a room temperature. NMP was administered as a single morning dose on an empty stomach at least 30 min prior to food. Patients were dosed according to an ‘accelerated’ escalation schedule (one patient per dose level) in the absence of significant toxicity until a DLT was experienced and then in a 3 × 3 ‘standard’ dose-escalation phase. Intra-patient dose escalation at 100 mg increments was also permitted whereby the MTD had not been determined and the patient tolerated two consecutive cycles without DLT or an objective disease response. Treatment was administered daily for 28-day cycles until withdrawal from protocol due to toxicity or disease progression.
smiles,measurement,setting,value
"CN1CCCC1=O [NMP, N-methyl-2-pyrrolidone]",grade 5 AEs,13 patients,no grade 5 AEs
same,Anaemia: Total,"human, in vivo",23%
same,Anaemia: Total (patients),"human, in vivo",3
same,Anaemia: worst grade 1 (patients),"human, in vivo",0
same,Anaemia: worst grade 2 (patients),"human, in vivo",1
same,Anaemia: worst grade 3 (patients),"human, in vivo",2
same,Anaemia: worst grade 4 (patients),"human, in vivo",0
same,Anorexia: Total,"human, in vivo",23%
same,Anorexia: Total (patients),"human, in vivo",3
same,Anorexia: worst grade 1 (patients),"human, in vivo",0
same,Anorexia: worst grade 2 (patients),"human, in vivo",3
same,Anorexia: worst grade 3 (patients),"human, in vivo",0
same,Anorexia: worst grade 4 (patients),"human, in vivo",0
same,Constipation: Total,"human, in vivo",15%
same,Constipation: Total (patients),"human, in vivo",2
same,Constipation: worst grade 1 (patients),"human, in vivo",1
same,Constipation: worst grade 2 (patients),"human, in vivo",1
same,Constipation: worst grade 3 (patients),"human, in vivo",0
same,Constipation: worst grade 4 (patients),"human, in vivo",0
same,Diarrhoea: Total,"human, in vivo",23%
same,Diarrhoea: Total (patients),"human, in vivo",3
same,Diarrhoea: worst grade 1 (patients),"human, in vivo",2
same,Diarrhoea: worst grade 2 (patients),"human, in vivo",0
same,Diarrhoea: worst grade 3 (patients),"human, in vivo",1
same,Diarrhoea: worst grade 4 (patients),"human, in vivo",0
same,Dizziness: Total,"human, in vivo",23%
same,Dizziness: Total (patients),"human, in vivo",3
same,Dizziness: worst grade 1 (patients),"human, in vivo",2
same,Dizziness: worst grade 2 (patients),"human, in vivo",1
same,Dizziness: worst grade 3 (patients),"human, in vivo",0
same,Dizziness: worst grade 4 (patients),"human, in vivo",0
same,Dysgeusia: Total,"human, in vivo",15%
same,Dysgeusia: Total (patients),"human, in vivo",2
same,Dysgeusia: worst grade 1 (patients),"human, in vivo",2
same,Dysgeusia: worst grade 2 (patients),"human, in vivo",0
same,Dysgeusia: worst grade 3 (patients),"human, in vivo",0
same,Dysgeusia: worst grade 4 (patients),"human, in vivo",0
same,Fatigue: Total,"human, in vivo",23%
same,Fatigue: Total (patients),"human, in vivo",3
same,Fatigue: worst grade 1 (patients),"human, in vivo",3
same,Fatigue: worst grade 2 (patients),"human, in vivo",0
same,Fatigue: worst grade 3 (patients),"human, in vivo",0
same,Fatigue: worst grade 4 (patients),"human, in vivo",0
same,Fever: Total,"human, in vivo",15%
same,Fever: Total (patients),"human, in vivo",2
same,Fever: worst grade 1 (patients),"human, in vivo",0
same,Fever: worst grade 2 (patients),"human, in vivo",0
same,Fever: worst grade 3 (patients),"human, in vivo",1
same,Fever: worst grade 4 (patients),"human, in vivo",1
same,"Grade 3–4 adverse events, patients","human, in vivo",54%
same,Musculoskeletal pain: Total,"human, in vivo",38%
same,Musculoskeletal pain: Total (patients),"human, in vivo",5
same,Musculoskeletal pain: worst grade 1 (patients),"human, in vivo",2
same,Musculoskeletal pain: worst grade 2 (patients),"human, in vivo",3
same,Musculoskeletal pain: worst grade 3 (patients),"human, in vivo",0
same,Musculoskeletal pain: worst grade 4 (patients),"human, in vivo",0
same,Nausea: Total,"human, in vivo",54%
same,Nausea: Total (patients),"human, in vivo",7
same,Nausea: worst grade 1 (patients),"human, in vivo",1
same,Nausea: worst grade 2 (patients),"human, in vivo",6
same,Nausea: worst grade 3 (patients),"human, in vivo",0
same,Nausea: worst grade 4 (patients),"human, in vivo",0
same,Neutrophil count decreased: Total (patients),"human, in vivo",3
same,Neutrophil count decreased: worst grade 1 (patients),"human, in vivo",0
same,Neutrophil count decreased: worst grade 2 (patients),"human, in vivo",1
same,Neutrophil count decreased: worst grade 3 (patients),"human, in vivo",2
same,Neutrophil count decreased: worst grade 4 (patients),"human, in vivo",0
same,Overall adverse events: Total,"human, in vivo",100%
same,Overall adverse events: Total (patients),"human, in vivo",13
same,Overall adverse events: worst grade 1 (patients),"human, in vivo",1
same,Overall adverse events: worst grade 2 (patients),"human, in vivo",5
same,Overall adverse events: worst grade 3 (patients),"human, in vivo",6
same,Overall adverse events: worst grade 4 (patients),"human, in vivo",1
same,Peripheral sensory neuropathy: Total,"human, in vivo",23%
same,Peripheral sensory neuropathy: Total (patients),"human, in vivo",3
same,Peripheral sensory neuropathy: worst grade 1 (patients),"human, in vivo",0
same,Peripheral sensory neuropathy: worst grade 2 (patients),"human, in vivo",3
same,Peripheral sensory neuropathy: worst grade 3 (patients),"human, in vivo",0
same,Peripheral sensory neuropathy: worst grade 4 (patients),"human, in vivo",0
same,Pruritus: Total,"human, in vivo",15%
same,Pruritus: Total (patients),"human, in vivo",2
same,Pruritus: worst grade 1 (patients),"human, in vivo",2
same,Pruritus: worst grade 2 (patients),"human, in vivo",0
same,Pruritus: worst grade 3 (patients),"human, in vivo",0
same,Pruritus: worst grade 4 (patients),"human, in vivo",0
same,Renal dysfunction: Total,"human, in vivo",15%
same,Renal dysfunction: Total (patients),"human, in vivo",2
same,Renal dysfunction: worst grade 1 (patients),"human, in vivo",0
same,Renal dysfunction: worst grade 2 (patients),"human, in vivo",0
same,Renal dysfunction: worst grade 3 (patients),"human, in vivo",2
same,Renal dysfunction: worst grade 4 (patients),"human, in vivo",0
same,Sore throat: Total,"human, in vivo",15%
same,Sore throat: Total (patients),"human, in vivo",2
same,Sore throat: worst grade 1 (patients),"human, in vivo",2
same,Sore throat: worst grade 2 (patients),"human, in vivo",0
same,Sore throat: worst grade 3 (patients),"human, in vivo",0
same,Sore throat: worst grade 4 (patients),"human, in vivo",0
same,URTI: Total,"human, in vivo",15%
same,URTI: Total (patients),"human, in vivo",2
same,URTI: worst grade 1 (patients),"human, in vivo",0
same,URTI: worst grade 2 (patients),"human, in vivo",2
same,URTI: worst grade 3 (patients),"human, in vivo",0
same,URTI: worst grade 4 (patients),"human, in vivo",0
same,overall DLT rate,"human, in vivo",8%
same,maximum tolerated dose (MTD),"human, in vivo, po",not defined
same,dose limiting toxicity (DLT) event,in vivo,diarrhoea
